Test results taken from the OPERA property sets (Mansouri et al. 2018).

Conditions: not given

Compound | boiling point [°C] | log10 vapour pressure (mmHg) | melting point [°C] | ready biodegradability | log10 Henry constant (atm·m³/mol) | log10 Koc (L/kg) | log10 biodegradation half-life (days) | log10 Koa
Brc1cccc2ccccc12 | 281 | -2.01 | -1.8 | – | – | – | – | –
O=S(=O)(O)C(F)(F)C(F)(F)C(F)(F)C(F)(F)C(F)(F)F | 225 | – | – | – | – | – | – | –
O=C(O)c1c(Br)cccc1Br | – | – | 150 | – | – | – | – | –
O=C(O)c1cccc(O)c1 | – | – | 202 | readily biodegradable | – | – | – | –
NCCCc1ccccc1 | 221 | – | – | – | – | – | – | –
COC(=O)c1ccccc1I | 280 | – | – | – | – | – | – | –
O=C(O)[C@@H]1CCCO1 | – | – | 21 | – | – | – | – | –
CCOCC(=O)OCC | 158 | – | – | – | – | – | – | –
C/C=C/C(C)CC (configuration not stated) | 87.6 | – | -126 | – | – | – | – | –
N#Cc1c(Cl)c(Cl)c(Cl)c(C#N)c1Cl | 350 | -6.24 | 250 | readily biodegradable | -5.7 | 3.26 | – | –
C1=CCC(c2ccncc2)CC1 (configuration not stated) | 226 | – | 22.1 | – | – | – | – | –
CCC(Cl)CCl (configuration not stated) | 124 | 1.32 | – | – | – | – | – | –
O=C(O)COc1ccccc1 | 285 | – | 98.5 | – | – | – | – | –
Cc1cnc(NS(=O)(=O)c2ccc(N)cc2)nc1 | – | – | 262 | – | – | – | – | –
O=c1cccc[nH]1 | 280 | – | 108 | readily biodegradable | – | – | – | –
C1=CC=CCC=C1 | 117 | 1.37 | -79.5 | – | – | – | – | –
CC(=O)OCc1cnc(N)c(C#N)n1 | – | – | – | readily biodegradable | – | – | – | –
C[C@@H]1C[C@H](N(C)C)[C@@H](O)[C@H](O[C@H]2[C@@H](C)C[C@@H](C)C(=O)C=C[C@@H](C)[C@@H]([C@@H](C)O)OC(=O)[C@@H]2C)O1 | – | – | 157 | – | – | – | – | –
NNC(=O)NN | – | – | 154 | – | – | – | – | –
CCS(=O)(=O)c1ccccc1 | – | – | 42 | – | – | – | – | –
O=C(c1ccccc1)c1cccnc1 | 307 | – | 38 | – | – | – | – | –
NCCC(=O)N[C@@H](Cc1c[nH]cn1)C(=O)O | – | – | 260 | – | – | – | – | –
CC(=O)CCCO | 209 | – | – | – | – | – | – | –
CN1CCC[C@H]1c1cccnc1 | 247 | -1.42 | -79 | – | – | 2.01 | – | –
c1ccc2c(c1)OCO2 | 172 | – | – | – | – | – | – | –
Cc1cc(=O)cc(C)o1 | 251 | – | 132 | – | – | – | – | –

Compound | boiling point [°C] | log10 vapour pressure (mmHg) | melting point [°C] | ready biodegradability | log10 Henry constant (atm·m³/mol) | log10 Koc (L/kg) | log10 biodegradation half-life (days) | log10 Koa
CC1=CCCCC1 | 106 | 1.49 | – | – | – | – | – | –
COc1ccc([N+](=O)[O-])cc1 | 274 | – | 54 | not readily biodegradable | – | – | – | –
O=C1CCCCCCCCCCC(=O)OCCO1 | – | – | 18 | – | – | – | – | –
SCCCS | 173 | – | -79 | – | – | – | – | –
Cc1ccc(I)cc1 | 211 | – | 36.5 | – | – | – | – | –
O=C(O)c1ccnc(C(=O)O)c1 | – | – | 249 | readily biodegradable | – | – | – | –
CCOc1ccc(C(C)(C)COCc2cccc(Oc3ccccc3)c2)cc1 | – | – | 37 | – | – | – | – | –
Cc1ccc(C[N+](=O)[O-])cc1 | – | – | 11.5 | – | – | – | – | –
COc1cc2ccc(=O)oc2cc1O | – | – | 204 | – | – | – | – | –
O=C(O)CCCCC[N+](=O)[O-] | – | – | – | readily biodegradable | – | – | – | –
Cc1ccc(N=Nc2ccccc2)cc1 | 312 | – | 71.5 | – | – | – | – | –
Cc1ccc(Cl)cc1[N+](=O)[O-] | 242 | – | 38 | – | – | – | – | –
CC=Cc1ccc(OC)cc1 | 234 | -1.15 | 21.3 | – | – | – | – | –
CN1CCN(CCCN2c3ccccc3Sc3ccccc32)CC1 | – | – | 52 | – | – | – | – | –
CC(=O)O[C@]1(C(C)=O)CC[C@H]2[C@@H]3C[C@H](C)C4=CC(=O)C=C[C@]4(C)[C@@]3(F)[C@@H](O)C[C@@]21C | – | – | 298 | – | – | – | – | –
CCCCCCCCCCC(C)=O | 246 | -1.69 | 21 | – | – | – | – | –
O=Cc1cc(Cl)cc(Cl)c1 | 240 | – | 65 | – | – | – | – | –
NC(=O)NCc1ccccc1 | – | – | 148 | – | – | – | – | –
COC(=O)CC(C)C | 116 | 1.15 | – | – | – | – | – | –
C=COC(=O)CCCCC | – | – | – | readily biodegradable | – | – | – | –
CCCCC(CC)CCC (configuration not stated) | 164 | – | – | – | – | – | – | –
O=C(O)CN(CCO)CC(=O)O | – | – | 178 | – | – | – | – | –
C[C@@H](N)C(C)(C)C | 102 | – | -20 | – | – | – | – | –
CCCCCCOC(=O)CC | 190 | – | -57.5 | – | – | – | – | –
CCCCCCCNCCCCCCC | 271 | – | 31.5 | – | – | – | – | –
CCCCc1cc(C)ccc1O | 228 | – | 19 | – | – | – | – | –

Compound | boiling point [°C] | log10 vapour pressure (mmHg) | melting point [°C] | ready biodegradability | log10 Henry constant (atm·m³/mol) | log10 Koc (L/kg) | log10 biodegradation half-life (days) | log10 Koa
Cc1ccc(N=c2sccn2C)c(C)c1 | – | -4.74 | 44 | – | – | – | – | –
CCOP(=S)(OCC)O/N=C(\C#N)c1ccccc1 | – | -4.8 | 6.1 | not readily biodegradable | – | – | – | –
CCCN(C)C | 66 | – | – | – | – | – | – | –
NC(=O)Nc1ccc(F)cc1 | – | – | – | – | – | 1.52 | – | –
Cc1c(O)c(Br)c(Br)c(Br)c1Br | – | – | 208 | – | – | – | – | –
COC(C)CCOC(C)=O (configuration not stated) | – | – | – | readily biodegradable | – | – | – | –
Cc1ccc2c(Cl)cc(Cl)c(O)c2n1 | – | – | 114 | – | – | – | – | –
CCOP(=S)(OCC)SCSc1ccc(Cl)cc1 | – | -6.52 | – | – | – | 4.66 | – | –
CCO/N=C(\OC(=O)c1ccccc1)c1c(OC)ccc(Cl)c1OC | – | – | 73 | – | – | – | – | –
NNCCO | 219 | – | -70 | – | – | – | – | –
CSc1ccccc1 | 193 | -0.314 | – | – | – | – | – | –
BrCCOc1ccccc1 | – | – | 39 | – | – | – | – | –
CC(C)c1ccccc1-c1ccccc1 | – | -3.3 | – | – | – | – | – | –
Clc1nc(Cl)c(Cl)c(Cl)n1 | – | – | 69 | – | – | – | – | –
COc1cc([C@@H]2c3cc4c(cc3[C@H](O)[C@H]3COC(=O)[C@@H]23)OCO4)cc(OC)c1OC | – | – | 206 | – | – | – | – | –
O=C1c2cc3ccccc3cc2-c2ccc3ccccc3c21 | – | – | 214 | – | – | – | – | –
Nc1cc(Cl)c(Cl)cc1N | – | – | 160 | – | – | – | – | –
O=[Se](O)c1ccccc1 | – | – | 124 | – | – | – | – | –
CCCOC(=O)NCCCN(C)C.Cl | – | -6.54 | 64.2 | – | – | – | – | –
FC1(F)C(Cl)=C(Cl)C(F)(F)C1(F)F | 90.7 | – | -106 | – | – | – | – | –
OC[C@H]1O[C@H](O[C@]2(CCl)O[C@H](CCl)[C@@H](O)[C@@H]2O)[C@H](O)[C@@H](O)[C@H]1Cl | – | – | 130 | – | – | – | – | –
C/C=C(\C)C(=O)O | 198 | -0.875 | 64.5 | – | – | – | – | –
CCCOCC(C)O (configuration not stated) | 150 | 0.23 | -80 | – | – | – | – | –
OCCNCCNCCO | – | – | 97.5 | – | – | – | – | –
C=CCC(C(C)=O)C(=O)OCC (configuration not stated) | 208 | – | – | – | – | – | – | –
CCN(CC)C1CCCCC1 | 193 | – | – | – | – | – | – | –

Compound | boiling point [°C] | log10 vapour pressure (mmHg) | melting point [°C] | ready biodegradability | log10 Henry constant (atm·m³/mol) | log10 Koc (L/kg) | log10 biodegradation half-life (days) | log10 Koa
Cc1cc(NC(N)=O)ccc1F | – | – | – | – | – | 1.75 | – | –
O=C(NCO)NCO | – | – | 126 | – | – | – | – | –
BrC(Br)C(Br)(Br)Br | – | – | 56.5 | – | – | – | – | –
C=CC[Si](C)(C)C | 86 | – | – | – | – | – | – | –
Cc1cc(Cc2cc(C)cc(C(C)(C)C)c2O)c(O)c(C(C)(C)C)c1 | – | – | 123 | not readily biodegradable | – | – | – | –
CCC(CO)O[N+](=O)[O-] (configuration not stated) | – | – | – | – | -6.78 | – | – | –
C1CCCCCCC1 | 149 | 0.741 | 14.8 | – | – | – | – | –
COc1c2ccoc2cc2oc(CO[C@@H]3O[C@H](CO)[C@@H](O)[C@H](O)[C@H]3O)cc(=O)c12 | – | – | 179 | – | – | – | – | –
Cc1cc(C)cc(C)c1 | 165 | 0.395 | -44.7 | not readily biodegradable | -2.06 | 2.82 | 0.477 | –
COc1ccc2c(OC(C)=O)c(OC)c(OC)c(OC(C)=O)c2c1 | – | – | 77.5 | – | – | – | – | –
O=C=Nc1ccc(Cl)c(Cl)c1 | – | – | 43 | – | – | – | – | –
O=C(O)CNCP(=O)(O)O | – | – | 190 | – | – | 3.32 | – | –
Cc1cc(C(C#N)c2ccc(Cl)cc2)c(Cl)cc1NC(=O)c1cc(I)cc(I)c1O (configuration not stated) | – | – | 218 | – | – | – | – | –
CC(C)(OOC(C)(C)c1ccccc1)c1ccccc1 | 396 | – | – | not readily biodegradable | – | – | – | –
C[C@]12CCC(=O)C=C1CC[C@@H]1[C@@H]2[C@@H](O)C[C@@]2(C)[C@H]1CC[C@]2(O)C(=O)CO | – | – | 218 | – | – | – | – | –
CCCCCOC(C)=O | 149 | 0.544 | -70.8 | – | -3.41 | – | – | 4.12
CCN(CC)c1ccc(Cl)cc1 | 252 | – | 45.5 | – | – | – | – | –
CCOC(=O)c1ccc(-c2ccc(C(=O)OCC)c(C(=O)OCC)c2)cc1C(=O)OCC | – | – | – | readily biodegradable | – | – | – | –
CCCCCC(=O)OCCC(C)C | 226 | – | – | – | – | – | – | –
NNS(=O)(=O)c1ccccc1 | – | – | 102 | – | – | – | – | –
C1=NNCC1 | 144 | – | – | – | – | – | – | –
C=CC(C)CCC (configuration not stated) | 83.9 | 1.92 | – | – | – | – | – | –
CC(C)(C)S(=O)(=O)O | – | – | 113 | – | – | – | – | –

Same assay, conditions: fish

Compound | log10 BCF | log10 biotransformation half-life (days)
N#Cc1c(Cl)c(Cl)c(Cl)c(C#N)c1Cl | 1.8 | 0.27
COc1ccc([N+](=O)[O-])cc1 | 1.08 | -0.95
Cc1ccc(Cl)cc1[N+](=O)[O-] | 1.92 | –
Clc1ccc(-c2cc(Cl)cc(Cl)c2Cl)cc1 | – | 2.43
CCOP(=S)(OCC)O/N=C(\C#N)c1ccccc1 | 2.91 | –
Cc1cc(Cc2cc(C)cc(C(C)(C)C)c2O)c(O)c(C(C)(C)C)c1 | 2.74 | 0.03
Cc1cc(C)cc(C)c1 | 2.27 | 0.4
CC(C)(OOC(C)(C)c1ccccc1)c1ccccc1 | 2.62 | -0.01
